Measurements as given in US10538544B1, “Method for administering cisplatin and a thiocyanate complex to treat ovarian cancer” (priority 2018, dated 2020).

Key:
[1] = system: A2780 S (cisplatin sensitive) human ovarian tumor cell line; test: MTT assay, cell viability, 72 h, A2780 S; type: cell-based; details: read-out: IC50 Values against A2780 S
Procedure: (§1) MTT assay. The IC50 values in 72 hours of the compounds on human ovarian tumor cell lines, A2780 S (cisplatin sensitive) and A2780 CR (cisplatin resistance) were identified by cell viability test. 6000 cells per well in 100 μL cell media were seeded. After 24 h, all supernatant was aspirated out. Then 200 μL of drug solution is added to the first column of each well, and 100 μL of medium were added into the remaining well. The 100 μL of drug solution from first column was taken and mix well with the next column by repeated pipetting using a multichannel pipettor. The last two columns were leaved without drug addition to serve as blank control. After 72 h, supernatants in each well was replaced with 100 μL of 10% MTT (3-(4,5-dimethylthiazol-2-yl)-2,5-diphenyltetrazolium bromide) tetrazolium reduction assay solution, and incubated for at least 45 minutes at 37° C. After aspirating incubated solution, 100 μL of DMSO was added into each well to dissolve formazan crystals. The plates were then read using plate reader at 570 nm. The in vitro cytotoxicity of three platinum complexes (1), (2) and (3) was evaluated against a pair human ovarian tumor cell lines, A2780 S (cisplatin sensitive) and A2780 CR (cisplatin resistant). For comparison, anticancer activity of cisplatin was also evaluated under the same conditions. The IC50 values and cell viability curves are shown in Table 3 and FIG. 5 respectively.

[2] = system: A2780 CR (cisplatin resistant) human ovarian tumor cell line; test: MTT assay, cell viability, 72 h, A2780 CR; type: cell-based; details: for IC50: MTT, 72 h, A2780 CR (cisplatin resistant), read-out: IC50 Values against A2780 CR; for Resistance factor: calculated from IC50 in A2780 CR and A2780 S
Procedure: as §1

[3] = background, literature; cited from earlier work
[4] = background, literature; cited from earlier work; remark: listed apart in the source

CC(C)CN(CC(C)C)C(=S)[S-].CC(C)CN(CC(C)C)C(=S)[S-].[Pt+2] [(1), [Pt(S2CN^i Bu2)2]]
IC50 [1]: 5 ± 0.097 µM
cytotoxicity compared with cisplatin against A2780 CR cells ([2]; A2780 CR cells, in words): better cytotoxicity than cisplatin
IC50 [2]: 5.91 ± 0.92 µM
Resistance factor [2]: 1.18

CC(C)N(C(=S)[S-])C(C)C.CC(C)N(C(=S)[S-])C(C)C.[Pt+2] [(3), [Pt(S2CN^i Pr2)2]]
IC50 [1]: 8.92 ± 0.58 µM
IC50 [2]: 8.83 ± 0.83 µM
Resistance factor [2]: 1.00

N.N.[Cl][Pt][Cl] [Cisplatin]
IC50 [1]: 0.33 ± 0.011 µM
IC50 [2]: 6.37 ± 1 µM
Resistance factor [2]: 19.20

[Pt(ESDT)(Py)Cl]
renal toxicity compared with cisplatin [3]: much lower renal toxicity
effectiveness as antiproliferative agent compared with cisplatin [4]: more effective as antiproliferative agent than cisplatin

[Pt(S2CNBn2)2].py [(2)]
IC50 [1]: 16.4 ± 1.35 µM
IC50 [2]: 15 ± 1.21 µM
Resistance factor [2]: 0.92
